Calls of active or inactive are those of the source. The calls are words filed in the database; no cut-off is given here.
Test system: Acanthamoeba polyphaga
Test: Amoebicidal activity against Trophozoites of Acanthamoeba polyphaga 5SU assessed as complete killing time at 55 mM in phosphate buffered saline at pH 7 after 6 hrs by hemocytometer using trypan blue stain in presence of 190 mM ammonium chloride
Type: functional, organism-based

## O=S(=O)(O)CCNCl
  Activity: Active
